Measured values: US6534494B1, “Process for the preparation of cefuroxime axetil in an amorphous form” (Ranbaxy Laboratories Limited, priority 1998, dated 2003)

What was measured:
[1] = amorphous form, purity at least 95%; cited from earlier work
[2] = compared with the crystalline form; cited from earlier work
[3] = Particle size by scanning electron microscopy; format: physicochemical; conditions: crystalline feed material before milling
Experimental: 30 g of crystalline cefuroxime axetil S isomer with a particle size of 10-300 μm and having a bulk density of 0.391 g/cc, together with 3 g of sodium lauryl sulphate (SLS) were placed in the bowl of a Micros ‘0’ Super Fine Mill. Cold water was circulated through the outer jacket. The mill was operated with main shaft rotation set at 1000 rpm for 120 mins. The inner temperature was maintained in the range from 19-24° C. […] Samples of the material were examined by scanning electron microscopy and by X-ray diffraction crystallography.
Crystalline cefuroxime axetil S isomer with a particle size of 10-300 μm and having a bulk density of 0.391 g/cc, a mixture of crystalline cefuroxime axetil S isomer with crystalline cefuroxime axetil R isomer with a particle size of 5-50 μm, and having a bulk density of 0.221 g/cc. and crystalline cefuroxime axetil R,S racemic mixture were tested for conversion from the crystalline form to an amorphous form in different trials. The feed material consisted of cefuroxime axetil together with sodium lauryl sulphate or cefuroxime axetil together with sodium lauryl sulphate and colloidal silica (Aerosil 200). Samples of the material were withdrawn at various times for X-ray diffraction crystallography using a XRG 3000 diffractometer, and for scanning electron photomicrography. […] The percent crystallinity for the samples from Examples 6-9 was estimated to be less than 5% in all cases confirming the conversion of cefuroxime axetil to a predominantly (at least 95%) amorphous form.

[4] = Bulk density of crystalline feed material; format: physicochemical; conditions: crystalline feed material before milling
[5] = listed as Crystalline cefuroxime axetil S isomer

Structure (SMILES)	chemical stability [1]	bioavailability [2]	particle size [3]	bulk density [4] [g/cc]	particle size [3, 5]	bulk density [4, 5] [g/cc]
CO/N=C(\C(=O)N[C@@H]1C(=O)N2C(C(=O)OC(C)OC(C)=O)=C(COC(N)=O)CS[C@H]12)c1ccco1 (some centres unmarked) [cefuroxime axetil in amorphous form, cefuroxime axetil]	adequate chemical stability	higher bioavailability than the crystalline form	–	–	–	–
CO/N=C(\C(=O)N[C@@H]1C(=O)N2C(C(=O)OC(C)OC(C)=O)=C(COC(N)=O)CS[C@H]12)c1ccco1 (stereo partly drawn) [crystalline cefuroxime axetil R isomer, cefuroxime axetil]	–	–	5-50 μm	0.221	–	–
CO/N=C(\C(=O)N[C@@H]1C(=O)N2C(C(=O)OC(C)OC(C)=O)=C(COC(N)=O)CS[C@H]12)c1ccco1 (stereo partly drawn) [crystalline cefuroxime axetil S isomer, cefuroxime axetil]	–	–	10-300 μm	0.391	10-300 μm	0.391
